Literature values in patent US20260355228A1, “TREATMENT OF FAMILIAL ADENOMATOUS POLYOPSIS USING A 13-MEMBERED MACROLIDE” (ZIKANI THERAPEUTICS, INC., priority 2022, published 2026).

Assays:
[1] = system: APC gene nonsense mutations in in vivo colon carcinoma models; conditions: in vivo colon carcinoma models [23]
[2] = system: APC gene nonsense mutations in colorectal cancer cell lines; conditions: colorectal cancer cell lines [23, 24]
[3] = system: APC (SW1417 colon carcinoma cells); conditions: SW1417 cells [23]
mouse model of FAP = mouse model of FAP [23, 24]
[4] = system: human colorectal xenografts possessing APC nonsense mutations; conditions: xenografts possessing APC nonsense mutations [23, 24]
[5] = system: FAP patients harboring APC nonsense mutations; conditions: clinical study, FAP patients [25]
APC L360X stop codon = conditions: luciferase based reporter vector [40]

Compound | suppression of translation termination generated by nonsense mutations in the APC gene [1] | suppression of nonsense mutations / translation termination in the APC gene [2] | read-through of the nonsense mutation leading to synthesis of full-length, active APC protein [3] | number of intestinal polyps (mouse model of FAP) | in vivo growth of human colorectal xenografts [4] | adenoma burden [5] | susceptibility of the L360X stop codon to read-through (APC L360X stop codon)
CC[C@H]1OC(=O)C[C@@H](O)[C@H](C)[C@@H](O[C@@H]2O[C@H](C)[C@@H](O[C@H]3C[C@@](C)(O)[C@@H](O)[C@H](C)O3)[C@H](N(C)C)[C@H]2O)[C@@H](CC=O)C[C@@H](C)C(=O)/C=C/C(C)=C/[C@@H]1CO[C@@H]1O[C@H](C)[C@@H](O)[C@@H](OC)[C@H]1OC [tylosin] | can suppress translation termination generated by nonsense mutations in the APC gene | can suppress translation termination generated by nonsense mutations in the APC gene | low level of full-length, active APC protein | – | – | – | –
CC[C@H]1OC(=O)[C@H](C)[C@@H](O[C@H]2C[C@@](C)(OC)[C@@H](O)[C@H](C)O2)[C@H](C)[C@@H](O[C@@H]2O[C@H](C)C[C@H](N(C)C)[C@H]2O)[C@](C)(O)C[C@@H](C)C(=O)[C@H](C)[C@@H](O)[C@]1(C)O [erythromycin] | – | suppressed nonsense mutations in the APC gene in human colon carcinoma cells | – | reduced the number of intestinal polyps | inhibited the in vivo growth of human colorectal xenografts | decrease in adenoma burden | –
gentamicin | – | suppressed nonsense mutations in the APC gene in human colon carcinoma cells | – | reduced the number of intestinal polyps | inhibited the in vivo growth of human colorectal xenografts | – | most susceptible
